Activity calls are given as the source filed them. The rule behind the calls is not given here.
Experiments:
PBMC [1] = assay: Stimulation of TNFalpha production in human PBMC at 1 ug/mL after 24 hrs by flow cytometry with cytometric bead array method; type: functional, cell-based
PBMC [2] = assay: Stimulation of IFN-gamma production in human PBMC at 1 ug/mL after 24 hrs by flow cytometry with cytometric bead array method; type: functional, cell-based
PBMC [3] = assay: Stimulation of IL2 production in human PBMC at 1 ug/mL after 24 hrs by flow cytometry with cytometric bead array method; type: functional, cell-based
PBMC [4] = assay: Stimulation of IFN-gamma production in human PBMC at 0.1 ug/mL after 24 hrs by flow cytometry with cytometric bead array method; type: functional, cell-based
PBMC [5] = assay: Stimulation of IL10 production in human PBMC at 1 ug/mL after 24 hrs by flow cytometry with cytometric bead array method; type: functional, cell-based
PBMC [6] = assay: Stimulation of TNFalpha production in human PBMC at 0.1 ug/mL after 24 hrs by flow cytometry with cytometric bead array method; type: functional, cell-based
PBMC [7] = assay: Cytotoxicity against human PBMC at 0.1 ug/mL; type: cell-based
PBMC [8] = assay: Stimulation of IL6 production in human PBMC at 1 ug/mL after 24 hrs by flow cytometry with cytometric bead array method; type: functional, cell-based
PBMC [9] = assay: Stimulation of IL2 production in human PBMC at 0.1 ug/mL after 24 hrs by flow cytometry with cytometric bead array method; type: functional, cell-based
PBMC [10] = assay: Stimulation of IL6 production in human PBMC at 0.1 ug/mL after 24 hrs by flow cytometry with cytometric bead array method; type: functional, cell-based
PBMC [11] = assay: Stimulation of IL4 production in human PBMC at 1 ug/mL after 24 hrs by flow cytometry with cytometric bead array method; type: functional, cell-based
PBMC [12] = assay: Cytotoxicity against human PBMC at 1 ug/mL; type: cell-based
PBMC [13] = assay: Stimulation of IL10 production in human PBMC at 0.1 ug/mL after 24 hrs by flow cytometry with cytometric bead array method; type: functional, cell-based
PBMC [14] = assay: Stimulation of IL4 production in human PBMC at 0.1 ug/mL after 24 hrs by flow cytometry with cytometric bead array method; type: functional, cell-based
[Chlorella] fusca = Antialgal activity against 'Chlorella' fusca at 50 ug/disk by agar diffusion assay; type: functional; details: Scenedesmus fuscus; read-out: IZ
Mycotypha microspora = assay: Antifungal activity against Mycotypha microspora at 50 ug/disk by agar diffusion assay; type: functional; details: read-out: IZ

CC(C)=CCOc1c(C)cc2oc3c(CC=C(C)C)ccc(O)c3c(=O)c2c1CO [EMERICELLIN]
Activity (PBMC [1]): inactive | Activity (PBMC [2]): inactive | Activity (PBMC [3]): inactive | Activity (PBMC [4]): inactive | Activity (PBMC [5]): inactive | Activity (PBMC [6]): inactive | Activity (PBMC [7]): Non-toxic | Activity (PBMC [8]): inactive | Activity (PBMC [9]): inactive | Activity (PBMC [10]): inactive | Activity (PBMC [11]): inactive | Activity (PBMC [12]): Non-toxic | Activity (PBMC [13]): inactive | Activity (PBMC [14]): inactive

CC(C)=CCOc1c(C)cc(O)c2c1C(O)Oc1ccc(CC=C(C)C)c(O)c1C2=O (centres undefined) [ARUGOSIN A]
Activity (PBMC [1]): inactive | Activity (PBMC [2]): inactive | Activity (PBMC [3]): inactive | Activity (PBMC [4]): inactive | Activity (PBMC [5]): inactive | Activity (PBMC [6]): inactive | Activity (PBMC [7]): Non-toxic | Activity (PBMC [8]): inactive | Activity (PBMC [9]): inactive | Activity (PBMC [10]): inactive | Activity (PBMC [11]): inactive | Activity (PBMC [12]): Non-toxic | Activity (PBMC [13]): inactive | Activity (PBMC [14]): inactive

C=C1CC[C@@H]2[C@](C)(CC[C@H](O)[C@@]2(C)CCC=C(C)C)[C@@H]1Cc1c[nH]c2ccccc12 [EMINDOLE DA]
Activity (PBMC [1]): inactive | Activity (PBMC [2]): inactive | Activity (PBMC [3]): inactive | Activity (PBMC [4]): inactive | Activity (PBMC [5]): inactive | Activity (PBMC [6]): inactive | Activity (PBMC [7]): Non-toxic | Activity (PBMC [8]): inactive | Activity (PBMC [9]): inactive | Activity (PBMC [10]): inactive | Activity (PBMC [11]): inactive | Activity (PBMC [12]): Non-toxic | Activity (PBMC [13]): inactive | Activity (PBMC [14]): inactive

CC(C)=CCOc1c(C)cc(O)c2c1C(O)Oc1c(CC=C(C)C)cc(CC=C(C)C)c(O)c1C2=O (centres undefined) [ARUGOSINS G]
Activity (PBMC [1]): inactive | Activity (PBMC [2]): inactive | Activity (PBMC [3]): inactive | Activity (PBMC [4]): inactive | Activity (PBMC [5]): inactive | Activity (PBMC [6]): inactive | Activity (PBMC [7]): Non-toxic | Activity (PBMC [8]): inactive | Activity (PBMC [9]): inactive | Activity (PBMC [10]): inactive | Activity (PBMC [11]): inactive | Activity (PBMC [12]): Non-toxic | Activity (PBMC [13]): inactive | Activity (PBMC [14]): inactive

CC(C)=CCOc1c(C)cc(O)c2c1C(O)Oc1c(CC=C(C)C)ccc(O)c1C2=O (centres undefined) [ARUGOSIN B]
Activity (PBMC [1]): inactive | Activity (PBMC [2]): inactive | Activity (PBMC [3]): inactive | Activity (PBMC [4]): inactive | Activity (PBMC [5]): inactive | Activity (PBMC [6]): inactive | Activity (PBMC [7]): Non-toxic | Activity (PBMC [8]): inactive | Activity (PBMC [9]): inactive | Activity (PBMC [10]): inactive | Activity (PBMC [11]): inactive | Activity (PBMC [12]): Non-toxic | Activity (PBMC [13]): inactive | Activity (PBMC [14]): inactive

C=C(C)[C@H]1COc2c(C)cc3oc4c(CC=C(C)C)ccc(O)c4c(=O)c3c2[C@@H]1O [SHAMIXANTHONE]
Activity (PBMC [1]): inactive | Activity (PBMC [2]): inactive | Activity (PBMC [3]): inactive | Activity (PBMC [4]): inactive | Activity (PBMC [5]): inactive | Activity (PBMC [6]): inactive | Activity (PBMC [7]): Non-toxic | Activity (PBMC [8]): inactive | Activity (PBMC [9]): inactive | Activity (PBMC [10]): inactive | Activity (PBMC [11]): inactive | Activity (PBMC [12]): Non-toxic | Activity (PBMC [13]): inactive | Activity (PBMC [14]): inactive

O=C1OC(O)C(Cc2ccccc2)=C1c1ccccc1 (centres undefined) [MICROPERFURANONE]
Activity (PBMC [1]): inactive | Activity (PBMC [2]): inactive | Activity (PBMC [3]): inactive | Activity (PBMC [4]): inactive | Activity (PBMC [5]): inactive | Activity (PBMC [6]): inactive | Activity (PBMC [7]): Non-toxic | Activity (PBMC [8]): inactive | Activity (PBMC [9]): inactive | Activity (PBMC [10]): inactive | Activity (PBMC [11]): inactive | Activity (PBMC [12]): Non-toxic | Activity (PBMC [13]): inactive | Activity (PBMC [14]): inactive

CC(C)=CCc1ccc(O)c(C(=O)c2c(O)cc(C)c(O)c2C=O)c1O [ARUGOSINS H]
Activity (PBMC [1]): inactive | Activity (PBMC [2]): inactive | zone of inhibition at 50 µg/disc ([Chlorella] fusca): 2 mm | Activity (PBMC [3]): inactive | Activity (PBMC [4]): inactive | Activity (PBMC [5]): inactive | Activity (PBMC [6]): inactive | Activity (PBMC [7]): Non-toxic | Activity (PBMC [8]): inactive | Activity (PBMC [9]): inactive | Activity (PBMC [10]): inactive | Activity (PBMC [11]): inactive | Activity (PBMC [12]): Non-toxic | Activity (PBMC [13]): inactive | zone of inhibition at 50 µg/disc (Mycotypha microspora): 3 mm | Activity (PBMC [14]): inactive
